Data as given in BindingDB's records for doi:10.1016/j.ejmech.2012.05.016 (Piramal Healthcare, 2012).

Molecular target: DGAT1 (Homo sapiens)
Test: Inhibition of human DGAT1 assessed as conversion of [14C]-oleoyl-CoA to [14C]-triglyceride after 10 mins by scintillation counting

Row | IC50 [nM] | Structure (SMILES)
1 | 141 | CC(C)[C@H](NC(=O)c1cc(-c2ccc(NC(=O)Nc3ccccc3F)cc2)no1)C(=O)O
2 | 44 | CC(C)[C@H](NC(=O)c1cc(-c2ccc(NC(=O)Nc3ccccc3Cl)cc2)no1)C(=O)O
3 | 282 | CC(C)[C@H](NC(=O)c1ncc(-c2ccc(NC(=O)Nc3ccccc3Cl)cc2)o1)C(=O)O
4 | 45 | CC(C)[C@H](NC(=O)c1cc(-c2ccc(NC(=O)Nc3cccc(Cl)c3)cc2)no1)C(=O)O
5 | 124 | CC(C)[C@H](NC(=O)c1cc(-c2ccc(NC(=O)Nc3ccc(Cl)cc3)cc2)no1)C(=O)O
6 | 66 | CC(C)[C@H](NC(=O)c1cc(-c2ccc(NC(=O)Nc3cccc(C(F)(F)F)c3)cc2)no1)C(=O)O
7 | 458 | CC(C)[C@H](NC(=O)c1ncc(-c2ccc(NC(=O)Nc3cccc(C(F)(F)F)c3)cc2)o1)C(=O)O
8 | 86 | CC(C)[C@H](NC(=O)c1cc(-c2ccc(NC(=O)Nc3ccc(Cl)cc3Oc3ccccc3)cc2)no1)C(=O)O
9 | 230 | CC(C)[C@H](NC(=O)c1ncc(-c2ccc(NC(=O)Nc3ccc(Cl)cc3Oc3ccccc3)cc2)o1)C(=O)O
10 | 24 | CC(C)[C@H](NC(=O)c1cc(-c2ccc(NC(=O)Nc3ccc(Cl)cc3F)cc2)no1)C(=O)O
11 | 62 | CC(C)[C@H](NC(=O)c1cc(-c2ccc(NC(=O)Nc3ccc(F)cc3F)cc2)no1)C(=O)O
12 | 60 | CC(C)[C@H](NC(=O)c1cc(-c2ccc(NC(=O)Nc3ccc(F)cc3)cc2)no1)C(=O)O
13 | 61 | Cc1ccc(NC(=O)Nc2ccc(-c3cc(C(=O)N[C@H](C(=O)O)C(C)C)on3)cc2)cc1
14 | 84 | Cc1ccccc1NC(=O)Nc1ccc(-c2cc(C(=O)N[C@H](C(=O)O)C(C)C)on2)cc1
15 | 75 | CC(C)[C@H](NC(=O)c1cc(-c2ccc(NC(=O)Nc3ccc(F)c(F)c3)cc2)no1)C(=O)O
16 | 75 | CC(C)[C@H](NC(=O)c1cc(-c2ccc(NC(=O)Nc3cc(F)cc(F)c3)cc2)no1)C(=O)O
17 | 141 | CC(C)[C@H](NC(=O)c1cc(-c2ccc(NC(=O)Nc3cc(F)ccc3F)cc2)no1)C(=O)O
18 | 185 | CC(C)[C@H](NC(=O)c1cc(-c2ccc(NC(=O)Nc3c(F)cccc3F)cc2)no1)C(=O)O
19 | 114 | Cc1cc(C)cc(NC(=O)Nc2ccc(-c3cc(C(=O)N[C@H](C(=O)O)C(C)C)on3)cc2)c1
20 | 178 | Cc1ccc(NC(=O)Nc2ccc(-c3cc(C(=O)N[C@H](C(=O)O)C(C)C)on3)cc2)cc1F
21 | 90 | Cc1cc(F)ccc1NC(=O)Nc1ccc(-c2cc(C(=O)N[C@H](C(=O)O)C(C)C)on2)cc1
22 | 259 | CC(C)[C@H](NC(=O)c1nc(-c2ccc(NC(=O)Nc3ccc(F)cc3F)cc2)no1)C(=O)O
23 | 120 | CC(C)[C@H](NC(=O)c1cc(-c2ccc(Nc3nc4ccc(F)cc4s3)cc2)no1)C(=O)O
